Data published in ChEMBL document CHEMBL1201862, “PubChem BioAssay data set” (2004).
The source made the active and inactive calls.

What was measured:
[1] = molecular target: Peroxisome proliferator-activated receptor gamma/Nuclear receptor corepressor 2 (Homo sapiens, UniProt P37231+Q9Y618); experiment: Counterscreen for NR2E3 inverse agonists: TR-FRET-based biochemical high throughput dose response assay to identify inverse agonists of the interaction between peroxisome proliferator-activated receptor gamma (PPARg) and nuclear receptor co-repressor 2 (NCOR2).; type: functional
[2] = molecular target: Photoreceptor-specific nuclear receptor (Homo sapiens, UniProt Q9Y5X4); experiment: NR2E3 inverse agonists, dose response, biochemical, TR-FRET (AID 463256); type: functional
[3] = molecular target: T1, Aminopeptidase N (Plasmodium falciparum FcB1/Columbia, UniProt O96935); experiment: P. falciparum M1AAP inhibitors, biochemical, fluorogenic H-Leu-NHMec substrate, 1536-well (AID 1445); parameters: species or system Plasmodium falciparum 3D7, 3D7
T1 sequence (O96935 whole entry): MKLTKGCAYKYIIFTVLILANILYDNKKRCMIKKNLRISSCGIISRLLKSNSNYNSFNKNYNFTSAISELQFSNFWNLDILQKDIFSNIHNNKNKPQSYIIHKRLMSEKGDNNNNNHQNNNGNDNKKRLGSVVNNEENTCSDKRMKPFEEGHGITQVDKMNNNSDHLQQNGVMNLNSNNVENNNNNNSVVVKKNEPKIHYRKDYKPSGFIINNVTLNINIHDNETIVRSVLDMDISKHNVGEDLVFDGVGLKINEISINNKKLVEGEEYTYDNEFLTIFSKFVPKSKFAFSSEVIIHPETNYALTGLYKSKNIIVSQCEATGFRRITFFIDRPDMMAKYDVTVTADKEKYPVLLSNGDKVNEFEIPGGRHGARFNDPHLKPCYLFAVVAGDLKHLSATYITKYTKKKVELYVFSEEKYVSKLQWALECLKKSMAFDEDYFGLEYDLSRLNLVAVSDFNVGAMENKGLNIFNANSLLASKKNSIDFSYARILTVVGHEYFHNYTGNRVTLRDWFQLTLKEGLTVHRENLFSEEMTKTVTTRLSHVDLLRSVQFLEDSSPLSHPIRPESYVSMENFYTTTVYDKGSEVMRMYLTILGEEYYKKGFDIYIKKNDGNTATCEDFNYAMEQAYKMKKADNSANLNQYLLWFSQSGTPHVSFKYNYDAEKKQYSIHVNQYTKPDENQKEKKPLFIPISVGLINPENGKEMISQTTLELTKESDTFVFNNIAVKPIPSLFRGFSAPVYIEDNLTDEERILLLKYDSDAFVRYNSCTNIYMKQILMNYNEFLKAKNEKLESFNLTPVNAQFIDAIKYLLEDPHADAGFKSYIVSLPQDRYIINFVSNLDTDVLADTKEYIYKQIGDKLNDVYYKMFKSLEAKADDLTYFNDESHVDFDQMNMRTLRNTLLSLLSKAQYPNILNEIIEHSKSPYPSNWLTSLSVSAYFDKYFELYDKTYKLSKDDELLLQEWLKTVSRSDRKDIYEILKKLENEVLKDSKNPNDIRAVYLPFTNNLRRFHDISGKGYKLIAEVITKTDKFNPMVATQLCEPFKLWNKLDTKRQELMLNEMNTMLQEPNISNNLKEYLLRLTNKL

[4] = molecular target: T2, RNA-binding protein pos-1 (Caenorhabditis elegans, UniProt G5EF15); experiment: inhibitors of POS-1/mex-3 RNA binding, dose response, biochemical, fluorescence polarization (AID 1964);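 further: purified POS-1 fused to maltose binding protein made in E. coli; potency of compounds blocking POS-1 binding to fluorescent RNA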
T2 sequence (G5EF15 whole entry): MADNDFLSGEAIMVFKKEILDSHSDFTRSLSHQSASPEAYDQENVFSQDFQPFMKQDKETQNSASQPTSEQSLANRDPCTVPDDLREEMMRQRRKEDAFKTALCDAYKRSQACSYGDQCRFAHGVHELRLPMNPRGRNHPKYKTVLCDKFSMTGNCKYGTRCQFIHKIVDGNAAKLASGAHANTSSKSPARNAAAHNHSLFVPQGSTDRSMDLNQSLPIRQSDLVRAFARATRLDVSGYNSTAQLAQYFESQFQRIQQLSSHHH

[5] = molecular target: T3, Zinc finger protein mex-5 (Caenorhabditis elegans, UniProt Q9XUB2); experiment: MEX-5/TCR-2 RNA interaction inhibitors, dose response, biochemical, C. elegans, fluorescence polarization (AID 1960)
T3 sequence (Q9XUB2 whole entry): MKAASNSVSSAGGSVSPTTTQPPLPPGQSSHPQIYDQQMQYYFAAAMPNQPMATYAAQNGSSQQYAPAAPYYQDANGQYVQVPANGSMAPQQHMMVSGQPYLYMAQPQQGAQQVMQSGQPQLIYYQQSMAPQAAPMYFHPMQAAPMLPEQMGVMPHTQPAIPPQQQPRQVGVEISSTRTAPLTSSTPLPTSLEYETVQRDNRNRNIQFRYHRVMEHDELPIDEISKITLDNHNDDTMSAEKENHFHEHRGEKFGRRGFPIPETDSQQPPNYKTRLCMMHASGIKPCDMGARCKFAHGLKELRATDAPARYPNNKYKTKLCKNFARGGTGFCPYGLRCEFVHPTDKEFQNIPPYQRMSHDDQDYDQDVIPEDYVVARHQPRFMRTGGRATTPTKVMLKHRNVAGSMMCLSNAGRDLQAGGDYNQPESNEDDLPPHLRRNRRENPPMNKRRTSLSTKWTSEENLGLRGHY

[6] = molecular target: Ephrin type-A receptor 4 (Mus musculus, UniProt Q03137); experiment: inhibitors of EphA4 binding to KYL peptide, primary screen, biochemical, colorimetric, mouse EphA4 (AID 689); type: functional
[7] = molecular target: Induced myeloid leukemia cell differentiation protein Mcl-1 (Homo sapiens, UniProt Q07820); type: functional
[8] = molecular target: Eukaryotic translation initiation factor 4E (Mus musculus, UniProt P63073); experiment: eIF4E–eIF4G protein interaction inhibitors, dose response, biochemical, TR-FRET (AID 855); type: functional;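 further: potency for disrupting eIF4E binding to eIF4GI seen as loss of FRET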
[9] = molecular target: Sphingosine 1-phosphate receptor 2 (Homo sapiens, UniProt O95136); experiment: Dose Response Cell Based Assay for Antagonists of the S1P2 Receptor. [Related pubchem assays: 856, 736 ]; type: functional
[10] = cytotoxicity in HPDE-C7 cells, cell-based, fluorescence, HTS (AID 430); type: functional; conditions: Homo sapiens
[11] = inhibitors of intracellular T. cruzi replication, confirmation, NIH3T3 host cells, beta-gal luminescence (AID 2044); type: functional, cell-based;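 further: intracellular parasites grown in NIH/3T3 mouse fibroblasts as host cells; luminescent beta-galactosidase reporter signal from transgenic T. cruzi replicating inside host cells; inhibitors lower the luminescence signal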
[12] = cytotoxicity in KRAS-transformed pancreatic duct cells, primary screen, cell-based, fluorescence, HTS (AID 431); type: functional; conditions: Homo sapiens;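 further: cell line used: HPDE-C7K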
[13] = growth suppression of PTEN-null colon cells, dose response, cell-based, HCT116 PTEN knockout (AID 1047); type: functional;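 further: HCT116 colon tumor cells with PTEN knocked out; cells exposed to compound for 60 hours before readout; potency for loss of cell viability measured by luminescence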
[14] = cytotoxicity toward NIH3T3 fibroblasts, dose response, counter-screen, cell-based, ATP luminescence, mouse fibroblasts (AID 2010); type: functional;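 further: cells exposed to compound for about 90 hours before reading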
[15] = growth suppression of beta-catenin-knockout colon cells, dose response, cell-based, HCT116, human colon tumor (AID 1045); type: functional;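 further: HCT116 colon tumor cells with beta catenin knocked out; cells exposed to compound for 60 hours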
[16] = THP-1 cell cytotoxicity, dose response, cytotoxicity control for non-replicating M. tuberculosis project (AID 489025); type: functional
[17] = Vero E6 cell cytotoxicity, dose response, cytotoxicity control for non-replicating M. tuberculosis project, secondary assay (AID 492998); type: functional, VeroE6; conditions: Vero C1008
[18] = cytotoxicity in HEK-293T cells, dose response, cytotoxicity control for TCR NF-kB inhibitor project, luminescence, T-cell screen hits (AID 489026); type: functional, cell-based;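 further: cells exposed to compound about 14 hours before the viability readout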
[19] = cells; type: functional
[20] = Shn3 3'UTR reporter inhibitors, dose response, cell-based, Clone20 osteoblasts, firefly luciferase, cherry-picked (AID 624132); type: functional;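 further: firefly luciferase luminescence from reporter carrying the Shn3 3'UTR in osteoblasts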
[21] = HepG2 cell cytotoxicity, dose response, cytotoxicity control for Shn3 inhibitor project, CellTiter-Glo, cherry-picked (AID 624134); type: functional, cell-based
[22] = control 3'UTR Renilla luciferase suppression, dose response, counter-screen for Shn3 inhibitor project, cell-based, Clone20-Shn3RL, cherry-picked (AID 624133); type: functional
[23] = molecular target: Voltage-gated inwardly rectifying potassium channel KCNH2 (Homo sapiens, UniProt Q12809); experiment: hERG protection from proarrhythmic block, potency, dose response, cell-based, thallium flux (AID 2121); type: ADME
[24] = molecular target: Cysteine protease ATG4B (Homo sapiens, UniProt Q9Y4P1); type: functional;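 further: Fluorescence-based dose-response confirmation assay measuring inhibition of ATG4B activity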
[25] = molecular target: Phospholipase A2 (Homo sapiens, UniProt P04054); type: functional;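 further: confirmatory dose-response counterscreen on phospholipase A2, testing hits that came from an ultra-high-throughput screen for ATG4B inhibitors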
[26] = test system: Vero; experiment: cells; type: functional, cell-based; conditions: Chlorocebus sabaeus
[27] = test system: Vero; experiment: cells; type: functional; conditions: Chlorocebus sabaeus
[28] = Late stage counterscreen results from the probe development effort to identify activators of signal transducer and activator of transcription 1 (STAT1): luminescence-based cell-based dose response assay to identify cytotoxic compounds.; type: functional

Sequence of Eukaryotic translation initiation factor 4E (P63073 whole entry): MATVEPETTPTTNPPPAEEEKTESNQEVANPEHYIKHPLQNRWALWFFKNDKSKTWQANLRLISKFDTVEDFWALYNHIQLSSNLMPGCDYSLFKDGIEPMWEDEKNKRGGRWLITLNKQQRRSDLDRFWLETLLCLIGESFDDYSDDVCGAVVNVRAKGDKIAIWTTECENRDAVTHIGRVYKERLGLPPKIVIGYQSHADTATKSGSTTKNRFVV
Sequence of Phospholipase A2 (P04054 whole entry): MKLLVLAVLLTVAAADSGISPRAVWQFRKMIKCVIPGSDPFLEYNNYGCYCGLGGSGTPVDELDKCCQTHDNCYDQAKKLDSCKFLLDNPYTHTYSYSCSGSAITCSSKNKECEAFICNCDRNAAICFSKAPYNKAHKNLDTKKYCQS
Sequence of Peroxisome proliferator-activated receptor gamma/Nuclear receptor corepressor 2 (P37231 whole entry): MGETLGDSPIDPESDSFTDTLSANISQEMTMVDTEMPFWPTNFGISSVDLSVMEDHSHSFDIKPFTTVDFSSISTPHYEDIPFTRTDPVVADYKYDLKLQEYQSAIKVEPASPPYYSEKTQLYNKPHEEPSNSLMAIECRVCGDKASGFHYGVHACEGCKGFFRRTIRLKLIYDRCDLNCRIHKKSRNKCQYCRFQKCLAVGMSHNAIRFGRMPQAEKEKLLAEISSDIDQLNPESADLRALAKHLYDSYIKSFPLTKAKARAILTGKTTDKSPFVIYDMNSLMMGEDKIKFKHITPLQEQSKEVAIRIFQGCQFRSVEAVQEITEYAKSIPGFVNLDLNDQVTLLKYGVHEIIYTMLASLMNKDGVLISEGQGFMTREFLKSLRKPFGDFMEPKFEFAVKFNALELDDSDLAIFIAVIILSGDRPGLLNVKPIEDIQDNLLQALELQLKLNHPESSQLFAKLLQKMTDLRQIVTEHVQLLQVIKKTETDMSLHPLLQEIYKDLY
Sequence of Peroxisome proliferator-activated receptor gamma/Nuclear receptor corepressor 2 (Q9Y618 whole entry): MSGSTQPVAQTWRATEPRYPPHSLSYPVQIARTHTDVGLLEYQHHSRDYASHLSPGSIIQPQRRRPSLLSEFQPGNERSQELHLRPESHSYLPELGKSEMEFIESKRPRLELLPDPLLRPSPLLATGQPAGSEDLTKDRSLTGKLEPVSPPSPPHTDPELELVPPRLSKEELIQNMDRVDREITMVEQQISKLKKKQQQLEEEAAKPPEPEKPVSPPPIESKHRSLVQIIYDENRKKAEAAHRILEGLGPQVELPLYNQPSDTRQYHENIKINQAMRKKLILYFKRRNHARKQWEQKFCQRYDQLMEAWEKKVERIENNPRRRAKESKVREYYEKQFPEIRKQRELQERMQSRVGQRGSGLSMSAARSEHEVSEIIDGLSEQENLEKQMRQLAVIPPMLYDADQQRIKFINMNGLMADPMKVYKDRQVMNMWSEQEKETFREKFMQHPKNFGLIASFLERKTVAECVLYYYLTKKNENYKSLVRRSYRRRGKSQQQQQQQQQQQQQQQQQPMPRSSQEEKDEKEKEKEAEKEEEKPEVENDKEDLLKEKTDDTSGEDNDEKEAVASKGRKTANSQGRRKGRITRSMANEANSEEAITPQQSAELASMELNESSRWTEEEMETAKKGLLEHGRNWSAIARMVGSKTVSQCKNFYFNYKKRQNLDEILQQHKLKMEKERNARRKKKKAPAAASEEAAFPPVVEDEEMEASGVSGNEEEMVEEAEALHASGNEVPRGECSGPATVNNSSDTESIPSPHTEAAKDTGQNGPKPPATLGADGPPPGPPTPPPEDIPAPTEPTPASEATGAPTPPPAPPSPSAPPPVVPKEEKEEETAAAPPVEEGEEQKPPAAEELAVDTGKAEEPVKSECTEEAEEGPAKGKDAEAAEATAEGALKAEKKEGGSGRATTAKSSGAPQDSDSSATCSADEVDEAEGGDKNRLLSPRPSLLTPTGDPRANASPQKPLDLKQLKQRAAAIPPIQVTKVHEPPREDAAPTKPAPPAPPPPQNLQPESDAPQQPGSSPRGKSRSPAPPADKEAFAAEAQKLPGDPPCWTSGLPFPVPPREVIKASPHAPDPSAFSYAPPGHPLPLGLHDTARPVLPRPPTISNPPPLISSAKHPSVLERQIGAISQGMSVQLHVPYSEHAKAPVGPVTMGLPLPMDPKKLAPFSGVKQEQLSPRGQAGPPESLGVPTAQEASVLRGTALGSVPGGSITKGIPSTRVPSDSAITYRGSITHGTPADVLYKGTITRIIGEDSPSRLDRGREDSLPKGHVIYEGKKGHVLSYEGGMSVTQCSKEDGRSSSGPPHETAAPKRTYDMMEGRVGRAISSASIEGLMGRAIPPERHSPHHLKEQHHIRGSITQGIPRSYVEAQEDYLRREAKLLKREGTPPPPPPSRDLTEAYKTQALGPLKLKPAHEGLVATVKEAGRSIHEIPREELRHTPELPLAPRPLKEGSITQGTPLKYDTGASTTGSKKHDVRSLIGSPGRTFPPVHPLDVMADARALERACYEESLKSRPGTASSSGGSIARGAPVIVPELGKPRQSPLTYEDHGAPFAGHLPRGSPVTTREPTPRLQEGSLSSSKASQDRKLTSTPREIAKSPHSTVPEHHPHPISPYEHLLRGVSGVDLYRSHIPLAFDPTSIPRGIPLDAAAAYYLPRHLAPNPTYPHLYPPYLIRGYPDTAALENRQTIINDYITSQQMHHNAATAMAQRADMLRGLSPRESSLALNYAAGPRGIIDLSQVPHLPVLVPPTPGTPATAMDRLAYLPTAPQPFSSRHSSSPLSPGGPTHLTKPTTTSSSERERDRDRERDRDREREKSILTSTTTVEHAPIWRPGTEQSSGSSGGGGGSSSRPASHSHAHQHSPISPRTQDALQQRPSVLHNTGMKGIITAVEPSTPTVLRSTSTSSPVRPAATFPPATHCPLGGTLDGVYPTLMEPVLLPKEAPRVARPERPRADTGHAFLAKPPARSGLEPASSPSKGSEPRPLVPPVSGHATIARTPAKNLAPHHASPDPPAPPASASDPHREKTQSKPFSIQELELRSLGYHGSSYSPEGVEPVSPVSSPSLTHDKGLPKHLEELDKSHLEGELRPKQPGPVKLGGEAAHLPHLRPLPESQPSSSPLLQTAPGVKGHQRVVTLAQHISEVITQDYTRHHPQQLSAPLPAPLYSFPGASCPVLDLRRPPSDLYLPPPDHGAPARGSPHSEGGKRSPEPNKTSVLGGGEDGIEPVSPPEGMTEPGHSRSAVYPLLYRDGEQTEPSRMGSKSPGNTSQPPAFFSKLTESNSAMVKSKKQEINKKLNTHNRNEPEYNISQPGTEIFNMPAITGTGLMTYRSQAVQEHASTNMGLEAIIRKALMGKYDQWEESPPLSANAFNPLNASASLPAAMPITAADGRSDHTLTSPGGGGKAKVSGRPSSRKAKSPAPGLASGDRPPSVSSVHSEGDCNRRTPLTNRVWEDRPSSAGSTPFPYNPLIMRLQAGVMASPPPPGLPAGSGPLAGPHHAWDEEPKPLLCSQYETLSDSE
Sequence of Ephrin type-A receptor 4 (Q03137 whole entry): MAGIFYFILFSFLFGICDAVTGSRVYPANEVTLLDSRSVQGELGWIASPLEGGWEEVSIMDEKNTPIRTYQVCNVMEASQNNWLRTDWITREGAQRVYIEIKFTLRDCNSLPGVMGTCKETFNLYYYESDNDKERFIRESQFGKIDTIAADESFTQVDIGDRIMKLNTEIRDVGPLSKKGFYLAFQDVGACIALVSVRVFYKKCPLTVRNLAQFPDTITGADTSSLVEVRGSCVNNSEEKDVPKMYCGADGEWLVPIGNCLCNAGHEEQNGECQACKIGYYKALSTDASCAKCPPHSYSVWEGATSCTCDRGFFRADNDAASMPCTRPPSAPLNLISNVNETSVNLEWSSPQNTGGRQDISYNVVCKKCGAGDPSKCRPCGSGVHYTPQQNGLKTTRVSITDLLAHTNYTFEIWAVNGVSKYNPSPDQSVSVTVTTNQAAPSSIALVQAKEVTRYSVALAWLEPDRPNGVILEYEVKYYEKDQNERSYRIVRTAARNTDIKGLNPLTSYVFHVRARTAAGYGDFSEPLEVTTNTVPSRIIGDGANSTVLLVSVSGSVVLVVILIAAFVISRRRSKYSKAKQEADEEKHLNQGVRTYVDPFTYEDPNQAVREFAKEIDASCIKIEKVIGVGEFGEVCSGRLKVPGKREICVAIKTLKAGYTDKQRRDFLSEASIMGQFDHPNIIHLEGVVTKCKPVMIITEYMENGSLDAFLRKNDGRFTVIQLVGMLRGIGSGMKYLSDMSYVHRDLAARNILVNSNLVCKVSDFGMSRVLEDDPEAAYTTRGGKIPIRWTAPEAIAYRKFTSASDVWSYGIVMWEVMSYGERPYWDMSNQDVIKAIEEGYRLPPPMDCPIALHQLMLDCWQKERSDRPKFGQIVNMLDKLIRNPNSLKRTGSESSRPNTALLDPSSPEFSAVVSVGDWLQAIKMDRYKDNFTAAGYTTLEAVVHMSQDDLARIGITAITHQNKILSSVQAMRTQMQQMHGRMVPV
Sequence of Photoreceptor-specific nuclear receptor (Q9Y5X4 whole entry): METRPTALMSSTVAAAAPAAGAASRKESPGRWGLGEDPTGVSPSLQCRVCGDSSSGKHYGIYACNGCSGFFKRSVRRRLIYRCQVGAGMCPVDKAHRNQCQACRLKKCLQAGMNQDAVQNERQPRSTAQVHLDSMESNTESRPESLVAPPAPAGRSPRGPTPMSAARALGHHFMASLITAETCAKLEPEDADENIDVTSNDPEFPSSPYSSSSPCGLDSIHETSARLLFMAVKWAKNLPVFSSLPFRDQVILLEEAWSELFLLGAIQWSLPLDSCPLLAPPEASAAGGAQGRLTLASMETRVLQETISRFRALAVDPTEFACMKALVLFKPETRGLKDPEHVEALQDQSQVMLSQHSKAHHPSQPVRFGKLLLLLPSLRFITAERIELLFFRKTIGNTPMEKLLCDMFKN

Structure (SMILES): Cn1c(SCC(=O)c2ccc3c(c2)Cc2ccccc2-3)nnc1-c1ccccc1
- IC50 [1]: 4.12 µM (active)
- IC50 [2]: 3.82 µM (active)

Structure (SMILES): CCOC(=O)c1cc(-c2ccc(/C=C3/C(=O)NC(=O)C(C#N)=C3C)o2)ccc1Cl
- IC50 [3]: 80.1 µM (active)
- EC50 [4]: 19.9 µM (active)
- EC50 [5]: 17.4 µM (active)
- IC50 [6]: 2.53 µM (active)
- IC50 [7]: 0.752 µM (active)
- IC50 [8]: 23.4 µM (active)

Structure (SMILES): O=S1(=O)C=C(Sc2nc3cc(Cl)ccc3o2)c2ccccc21
- IC50 [9]: 3.47 µM (active)
- EC50 [10]: 4.03 µM (active)
- EC50 [11]: 0.818 µM (active)
- EC50 [12]: 9.45 µM (active)
- EC50 [13]: 4.03 µM (active)
- EC50 [14]: 1.58 µM (active)
- EC50 [15]: 3.65 µM (active)
- CC50 [16]: 8.54 µM (active)
- CC50 [17]: 5.94 µM (active)
- IC50 [18]: 54.3 µM (inactive)
- IC50 [19]: 1.57 µM (active)
- AC50 [20]: < 0.26 µM (active)
- AC50 [21]: 18.4 µM (active)
- AC50 [22]: 4.15 µM (active)

Structure (SMILES): Cc1ccc(C(=O)CC(=O)c2cc(Cl)ccc2O)cc1
- EC50 [23]: 3.02 µM (active)
- IC50 [24]: 11.1 µM (active)
- IC50 [25]: 8 µM (active)
- IC50 [26]: 23.8 µM (active)
- CC50 [27]: 22.3 µM (active)

Structure (SMILES): CCOC(=O)/C(C#N)=C/c1cc(C)n(-c2ccccc2)c1C
- IC50 [28]: > 55.7 µM (not active)
